{"source": "ChEMBL document CHEMBL1201862", "about": "“PubChem BioAssay data set” (2004)", "key": {"[1]": {"assay": "Luminescence Cell-Based Dose Response HTS to Identify Inhibitors of 5'UTR Stem-Loop Driven Prion Protein mRNA Translation in H4 Neuroglioblastoma Cells. [Related pubchem assays: 1827 (Project Summary), 1813 (Primary HTS)]", "type": "functional"}, "[2]": {"assay": "inhibitors of firefly luciferase expression or activity, dose response, H4 neuroglioma cells, luminescence (AID 1990)", "type": "functional, cell-based"}, "[3]": {"assay": "inhibitors of SNCA 5'UTR-driven reporter translation, confirmation, H4 neuroglioma cells, luminescence (AID 1988)", "type": "functional, cell-based"}, "BJ [4]": {"tested_on": "BJ", "assay": "cytotoxicity toward BJ-TERT fibroblasts, dose response, cell-based, RAS-independent, luminescence (AID 1933)", "type": "functional", "details": "Homo sapiens"}, "BJ [5]": {"tested_on": "BJ", "assay": "cytotoxicity toward BJ-TERT-LT-ST fibroblasts, dose response, cell-based, RAS-independent, luminescence (AID 1935);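 note: BJ fibroblasts immortalized with TERT plus LT and ST oncogenes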", "type": "functional", "details": "Homo sapiens"}, "[6]": {"assay": "cytotoxicity toward DRD oncogenic fibroblasts, dose response, cell-based, non-viral oncogenic, luminescence (AID 1934)", "type": "functional", "details": "Homo sapiens"}, "[7]": {"assay": "cytotoxicity in HEK-293T cells, dose response, cytotoxicity control for TCR NF-kB inhibitor project, luminescence, T-cell screen hits (AID 489026);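 note: cells exposed to compound about 14 hours before the viability readout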", "type": "functional, cell-based"}, "BJ [8]": {"tested_on": "BJ", "assay": "cells", "type": "functional, cell-based", "details": "Homo sapiens"}, "[9]": {"assay": "cytotoxicity in HEK-293T cells, dose response, cytotoxicity control for BCR NF-kB inhibitor project, luminescence, B-cell screen hits (AID 489021);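 note: cells exposed to compound for about 14 hours before viability readout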", "type": "functional, cell-based"}, "[10]": {"assay": "inhibitors of PGC1a acetylation in cells, dose response, cell-based, cherry-picked samples (AID 720514);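 note: potency may reflect raised or lowered acetylation signal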", "type": "functional"}, "[11]": {"target": "Peroxisome proliferator-activated receptor gamma/Nuclear receptor coactivator 1 (Homo sapiens, UniProt P37231)", "sequence (P37231 whole entry)": "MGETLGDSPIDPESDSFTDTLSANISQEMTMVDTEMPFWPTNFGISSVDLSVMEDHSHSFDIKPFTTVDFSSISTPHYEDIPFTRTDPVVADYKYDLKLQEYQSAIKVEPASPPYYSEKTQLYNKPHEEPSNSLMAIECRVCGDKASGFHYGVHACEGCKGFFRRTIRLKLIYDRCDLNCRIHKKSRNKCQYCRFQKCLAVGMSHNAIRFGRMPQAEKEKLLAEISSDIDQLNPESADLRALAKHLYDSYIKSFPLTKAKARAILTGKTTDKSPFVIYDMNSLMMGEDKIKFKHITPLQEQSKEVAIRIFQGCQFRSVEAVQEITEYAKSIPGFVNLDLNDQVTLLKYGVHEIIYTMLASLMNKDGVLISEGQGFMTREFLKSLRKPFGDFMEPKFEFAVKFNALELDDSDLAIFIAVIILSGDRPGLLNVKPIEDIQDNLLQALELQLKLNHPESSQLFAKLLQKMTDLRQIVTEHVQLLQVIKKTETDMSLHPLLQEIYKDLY", "sequence (Q15788 whole entry, further chain)": "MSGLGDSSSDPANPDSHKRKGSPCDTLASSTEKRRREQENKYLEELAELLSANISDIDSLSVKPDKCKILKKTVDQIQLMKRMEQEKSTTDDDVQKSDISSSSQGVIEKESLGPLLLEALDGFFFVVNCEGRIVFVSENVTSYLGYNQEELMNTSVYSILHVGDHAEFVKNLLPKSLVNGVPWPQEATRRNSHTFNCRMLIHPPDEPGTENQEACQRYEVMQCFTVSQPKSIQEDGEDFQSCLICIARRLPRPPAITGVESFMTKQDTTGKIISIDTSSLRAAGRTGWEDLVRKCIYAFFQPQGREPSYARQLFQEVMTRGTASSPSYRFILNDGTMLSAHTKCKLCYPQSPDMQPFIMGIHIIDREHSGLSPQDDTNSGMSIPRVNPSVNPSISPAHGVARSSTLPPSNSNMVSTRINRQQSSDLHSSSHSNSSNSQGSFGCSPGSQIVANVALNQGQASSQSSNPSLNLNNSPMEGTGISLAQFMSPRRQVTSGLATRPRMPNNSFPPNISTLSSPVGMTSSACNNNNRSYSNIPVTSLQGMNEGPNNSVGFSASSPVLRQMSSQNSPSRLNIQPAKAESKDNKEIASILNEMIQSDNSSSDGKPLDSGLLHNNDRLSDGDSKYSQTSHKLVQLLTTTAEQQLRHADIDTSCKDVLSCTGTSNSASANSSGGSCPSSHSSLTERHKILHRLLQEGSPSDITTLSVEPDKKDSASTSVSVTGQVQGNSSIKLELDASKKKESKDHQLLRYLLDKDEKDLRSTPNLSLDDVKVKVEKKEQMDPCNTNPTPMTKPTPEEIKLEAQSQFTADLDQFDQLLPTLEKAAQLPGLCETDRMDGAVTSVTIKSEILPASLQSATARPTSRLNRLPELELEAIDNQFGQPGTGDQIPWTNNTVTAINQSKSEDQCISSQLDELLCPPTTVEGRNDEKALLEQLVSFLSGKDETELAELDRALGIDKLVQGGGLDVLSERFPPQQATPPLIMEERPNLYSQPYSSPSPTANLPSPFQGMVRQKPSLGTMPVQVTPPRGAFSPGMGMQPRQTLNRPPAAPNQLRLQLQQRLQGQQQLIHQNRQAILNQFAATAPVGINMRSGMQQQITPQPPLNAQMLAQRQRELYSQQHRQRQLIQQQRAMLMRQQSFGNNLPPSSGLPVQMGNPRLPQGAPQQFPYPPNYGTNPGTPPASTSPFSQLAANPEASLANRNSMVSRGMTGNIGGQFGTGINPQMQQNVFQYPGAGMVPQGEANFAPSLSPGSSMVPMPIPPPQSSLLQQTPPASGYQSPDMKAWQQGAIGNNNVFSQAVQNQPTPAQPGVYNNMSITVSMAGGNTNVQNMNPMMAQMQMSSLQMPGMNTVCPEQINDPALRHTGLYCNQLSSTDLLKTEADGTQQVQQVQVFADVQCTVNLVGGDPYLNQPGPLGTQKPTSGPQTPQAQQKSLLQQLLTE", "type": "functional"}, "[12]": {"target": "Peroxisome proliferator-activated receptor gamma/Nuclear receptor coactivator 3 (Homo sapiens, UniProt P37231)", "sequence (P37231 whole entry)": "as the sequence (P37231 whole entry) above", "sequence (Q9Y6Q9 whole entry, further chain)": "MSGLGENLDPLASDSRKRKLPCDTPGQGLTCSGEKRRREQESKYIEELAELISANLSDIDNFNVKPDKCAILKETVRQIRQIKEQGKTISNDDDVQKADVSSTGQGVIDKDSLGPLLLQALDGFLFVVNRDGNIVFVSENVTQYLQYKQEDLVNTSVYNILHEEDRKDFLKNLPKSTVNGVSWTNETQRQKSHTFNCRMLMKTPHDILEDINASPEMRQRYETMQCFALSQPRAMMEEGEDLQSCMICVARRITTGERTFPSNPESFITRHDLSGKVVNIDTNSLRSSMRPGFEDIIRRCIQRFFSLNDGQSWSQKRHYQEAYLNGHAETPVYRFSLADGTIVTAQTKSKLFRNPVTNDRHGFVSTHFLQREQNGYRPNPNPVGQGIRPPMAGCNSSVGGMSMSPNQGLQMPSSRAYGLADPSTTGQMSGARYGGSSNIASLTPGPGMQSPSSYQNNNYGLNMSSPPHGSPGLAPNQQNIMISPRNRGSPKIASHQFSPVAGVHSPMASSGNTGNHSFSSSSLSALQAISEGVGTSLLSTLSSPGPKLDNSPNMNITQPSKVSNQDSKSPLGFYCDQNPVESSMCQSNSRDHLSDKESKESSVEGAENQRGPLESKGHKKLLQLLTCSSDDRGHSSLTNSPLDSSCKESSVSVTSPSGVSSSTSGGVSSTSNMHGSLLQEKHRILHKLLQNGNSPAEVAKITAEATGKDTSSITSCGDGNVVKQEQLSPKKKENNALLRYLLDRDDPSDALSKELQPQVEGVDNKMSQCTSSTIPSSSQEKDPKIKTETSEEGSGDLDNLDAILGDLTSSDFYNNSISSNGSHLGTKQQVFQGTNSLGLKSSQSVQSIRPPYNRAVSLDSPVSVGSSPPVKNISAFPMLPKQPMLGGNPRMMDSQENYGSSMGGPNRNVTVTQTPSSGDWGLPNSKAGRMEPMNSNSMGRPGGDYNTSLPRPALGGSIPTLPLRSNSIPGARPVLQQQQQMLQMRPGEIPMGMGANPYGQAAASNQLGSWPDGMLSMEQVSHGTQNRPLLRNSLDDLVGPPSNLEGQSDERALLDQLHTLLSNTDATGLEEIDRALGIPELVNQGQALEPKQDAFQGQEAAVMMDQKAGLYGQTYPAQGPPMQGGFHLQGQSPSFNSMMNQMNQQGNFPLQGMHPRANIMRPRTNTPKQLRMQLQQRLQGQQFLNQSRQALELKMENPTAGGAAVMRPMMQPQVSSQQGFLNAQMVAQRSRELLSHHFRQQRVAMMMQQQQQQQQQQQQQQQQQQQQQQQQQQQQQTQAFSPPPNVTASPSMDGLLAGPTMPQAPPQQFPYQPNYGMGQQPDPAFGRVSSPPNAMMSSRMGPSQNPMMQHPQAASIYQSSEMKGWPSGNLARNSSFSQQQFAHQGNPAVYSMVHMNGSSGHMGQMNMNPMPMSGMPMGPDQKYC", "type": "functional"}, "[13]": {"target": "Peroxisome proliferator-activated receptor gamma/Nuclear receptor coactivator 2 (Homo sapiens, UniProt P37231)", "type": "functional"}, "[14]": {"target": "T1, Rac GTPase-activating protein 1 (Homo sapiens, UniProt Q9H0H5)", "T1 sequence (Q9H0H5 whole entry)": "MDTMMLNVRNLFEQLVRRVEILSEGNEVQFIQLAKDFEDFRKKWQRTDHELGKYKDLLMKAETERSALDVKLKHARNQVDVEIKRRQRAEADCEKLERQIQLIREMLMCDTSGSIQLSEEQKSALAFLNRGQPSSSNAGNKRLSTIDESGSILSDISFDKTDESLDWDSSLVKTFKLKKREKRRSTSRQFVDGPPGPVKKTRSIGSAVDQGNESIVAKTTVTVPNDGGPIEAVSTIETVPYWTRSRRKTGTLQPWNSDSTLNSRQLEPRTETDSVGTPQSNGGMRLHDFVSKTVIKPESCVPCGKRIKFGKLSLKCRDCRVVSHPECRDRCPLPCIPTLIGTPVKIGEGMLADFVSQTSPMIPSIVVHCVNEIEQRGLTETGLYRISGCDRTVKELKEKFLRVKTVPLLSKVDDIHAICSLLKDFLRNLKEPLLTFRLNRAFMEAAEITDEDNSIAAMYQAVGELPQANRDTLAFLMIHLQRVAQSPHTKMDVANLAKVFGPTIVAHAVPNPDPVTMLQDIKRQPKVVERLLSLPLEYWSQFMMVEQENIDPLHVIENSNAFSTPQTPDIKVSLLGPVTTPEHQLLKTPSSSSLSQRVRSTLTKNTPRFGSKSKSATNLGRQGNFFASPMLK", "assay": "MgcRacGAP GTPase-activating activity inhibitors, confirmation, biochemical, ADP Hunter fluorescence, primary and confirmatory (AID 624330)", "type": "functional"}, "[15]": {"target": "DNA dC->dU-editing enzyme APOBEC-3G (Homo sapiens, UniProt Q9HC16)", "sequence (Q9HC16 whole entry)": "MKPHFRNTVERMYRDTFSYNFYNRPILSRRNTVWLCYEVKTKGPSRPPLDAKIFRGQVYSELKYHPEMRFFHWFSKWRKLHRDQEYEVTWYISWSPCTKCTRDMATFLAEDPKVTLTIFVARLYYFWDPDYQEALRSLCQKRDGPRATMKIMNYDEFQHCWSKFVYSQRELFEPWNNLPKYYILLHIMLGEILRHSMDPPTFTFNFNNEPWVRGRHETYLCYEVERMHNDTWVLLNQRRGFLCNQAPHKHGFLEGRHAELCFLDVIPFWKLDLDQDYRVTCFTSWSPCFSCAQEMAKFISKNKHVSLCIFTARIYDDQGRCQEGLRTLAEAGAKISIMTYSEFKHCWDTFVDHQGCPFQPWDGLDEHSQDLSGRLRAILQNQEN", "assay": "Dose Response confirmation of small molecule APOBEC3G DNA Deaminase Inhibitors via a fluorescence-based single-stranded DNA deaminase assay. [Related pubchem assays (depositor defined):AID493012, AID493028]", "type": "functional"}, "[16]": {"target": "DNA dC->dU-editing enzyme APOBEC-3A (Homo sapiens, UniProt P31941)", "sequence (P31941 whole entry)": "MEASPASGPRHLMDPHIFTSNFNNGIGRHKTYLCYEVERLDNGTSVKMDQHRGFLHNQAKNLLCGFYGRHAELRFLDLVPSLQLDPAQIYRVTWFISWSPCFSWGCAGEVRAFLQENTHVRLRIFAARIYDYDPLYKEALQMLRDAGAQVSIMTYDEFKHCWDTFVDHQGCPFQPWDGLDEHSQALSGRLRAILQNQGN", "assay": "APOBEC3A DNA deaminase inhibitors, dose response, biochemical (AID 504722)", "type": "functional"}, "[17]": {"assay": "HEp-2 cell cytotoxicity, dose response, cytotoxicity control for RSV inhibitor project, HTS (AID 2410)", "type": "functional", "details": "human respiratory syncytial virus"}, "[18]": {"target": "T2, Short transient receptor potential channel 4 (Mus musculus, UniProt Q9QUQ5)", "T2 sequence (Q9QUQ5 whole entry)": "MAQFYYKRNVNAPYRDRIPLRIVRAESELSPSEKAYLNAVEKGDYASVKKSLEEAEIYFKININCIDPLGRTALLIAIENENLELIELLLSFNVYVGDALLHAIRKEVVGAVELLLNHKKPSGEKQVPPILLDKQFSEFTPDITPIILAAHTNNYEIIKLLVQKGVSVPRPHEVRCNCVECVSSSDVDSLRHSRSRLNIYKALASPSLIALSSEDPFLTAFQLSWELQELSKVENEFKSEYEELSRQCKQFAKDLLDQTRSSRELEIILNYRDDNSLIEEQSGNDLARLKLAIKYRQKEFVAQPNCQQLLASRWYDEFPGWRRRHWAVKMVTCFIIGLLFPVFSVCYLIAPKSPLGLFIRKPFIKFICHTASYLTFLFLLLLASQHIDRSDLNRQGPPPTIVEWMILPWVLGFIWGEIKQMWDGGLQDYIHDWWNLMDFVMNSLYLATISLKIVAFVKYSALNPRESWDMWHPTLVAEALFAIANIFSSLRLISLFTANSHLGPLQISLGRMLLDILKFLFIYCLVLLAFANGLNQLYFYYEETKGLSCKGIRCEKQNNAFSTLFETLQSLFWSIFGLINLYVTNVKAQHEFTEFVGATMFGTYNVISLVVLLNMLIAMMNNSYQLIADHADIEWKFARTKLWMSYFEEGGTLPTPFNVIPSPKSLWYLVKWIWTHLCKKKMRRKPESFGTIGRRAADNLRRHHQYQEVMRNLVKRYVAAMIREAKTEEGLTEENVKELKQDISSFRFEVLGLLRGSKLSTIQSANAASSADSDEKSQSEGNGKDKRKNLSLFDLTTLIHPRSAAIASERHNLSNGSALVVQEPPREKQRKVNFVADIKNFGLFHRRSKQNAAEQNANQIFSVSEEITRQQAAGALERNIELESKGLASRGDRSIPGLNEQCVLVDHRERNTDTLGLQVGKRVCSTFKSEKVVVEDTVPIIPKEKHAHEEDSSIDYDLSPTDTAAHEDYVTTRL", "assay": "mouse TRPC4 channel inhibitors, dose response, cell-based, HEK293 TRPC4/mu-opioid, Fluo-4 calcium (AID 434942);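 note: potency of inhibitors blocking the TRPC4 calcium response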", "type": "functional"}}, "note": "Active and inactive are the calls of the source."}
{"smiles": "COc1ccc(-n2nnnc2-c2cccc(OC)c2)cc1", "values": [{"measurement": "EC50", "setting": "[1]", "value": "11.6 µM (active)"}, {"measurement": "EC50", "setting": "[2]", "value": "4.68 µM (inconclusive)"}, {"measurement": "EC50", "setting": "[3]", "value": "0.824 µM (inconclusive)"}, {"measurement": "EC50", "setting": "BJ [4]", "value": "8.48 µM (active)"}, {"measurement": "EC50", "setting": "BJ [5]", "value": "2.71 µM (active)"}, {"measurement": "EC50", "setting": "[6]", "value": "2.04 µM (active)"}, {"measurement": "IC50", "setting": "[7]", "value": "> 80 µM (inactive)"}, {"measurement": "EC50", "setting": "BJ [8]", "value": "109 µM (active)"}]}
{"smiles": "Cc1cc(OCC(=O)NC2CC2)c2c(C)c(C)c(=O)oc2c1", "values": [{"measurement": "IC50", "setting": "[9]", "value": "> 80 µM (inactive)"}]}
{"smiles": "Cc1ccc(/C=C2\\SC(=S)N(CCC(=O)NNC(=O)c3ccncc3)C2=O)cc1", "values": [{"measurement": "IC50", "setting": "[9]", "value": "> 80 µM (inactive)"}]}
{"smiles": "Cc1cc(OCC(=O)Nc2ccc(CCO)cc2)c2c(C)c(C)c(=O)oc2c1", "values": [{"measurement": "IC50", "setting": "[9]", "value": "> 80 µM (inactive)"}]}
{"smiles": "C[C@H](CO)N1C[C@H](C)[C@H](CN(C)Cc2ccccc2)Oc2cc(Br)ccc2S1(=O)=O", "values": [{"measurement": "AC50", "setting": "[10]", "value": "25.8 µM (active)"}]}
{"smiles": "Fc1cccc(-c2ccc([C@@H]3[C@@H]4CN(Cc5nccs5)C[C@H]3N4)cc2)c1", "values": [{"measurement": "AC50", "setting": "[10]", "value": "17.6 µM (active)"}]}
{"smiles": "O=C(C[C@H]1CC[C@@H](NC(=O)c2ccccc2)[C@H](CO)O1)Nc1ccc(-c2ccccc2)cc1", "values": [{"measurement": "AC50", "setting": "[10]", "value": "4.76 µM (active)"}]}
{"smiles": "COc1ccc(OC)c2c1s/c(=N\\C(=O)C(C)(C)C)n2C", "values": [{"measurement": "EC50", "setting": "[11]", "value": "> 79.4 µM (not active)"}, {"measurement": "EC50", "setting": "[12]", "value": "> 79.4 µM (not active)"}, {"measurement": "EC50", "setting": "[13]", "value": "> 79.4 µM (not active)"}]}
{"smiles": "Cc1cc(-c2nnc(S)n2/N=C/c2cccc(O)c2)[nH]n1", "values": [{"measurement": "IC50", "setting": "[14]", "value": "157 µM (active)"}, {"measurement": "IC50", "setting": "[15]", "value": "2.51 µM (active)"}, {"measurement": "IC50", "setting": "[16]", "value": "> 100 µM (inactive)"}]}
{"smiles": "CCOc1cc(/C=N\\Nc2nc(Nc3ccccc3)nc(N3CCOCC3)n2)ccc1OC(=O)c1ccco1", "values": [{"measurement": "IC50", "setting": "[9]", "value": "> 80 µM (inactive)"}]}
{"smiles": "Cc1nn(-c2ccccc2)c(C)c1/C=N/n1c(S)nnc1-c1ccncc1", "values": [{"measurement": "IC50", "setting": "[15]", "value": "2.75 µM (active)"}, {"measurement": "IC50", "setting": "[16]", "value": "> 100 µM (inactive)"}, {"measurement": "CC50", "setting": "[17]", "value": "> 50 µM (active)"}]}
{"smiles": "Cc1cc(N/N=C/c2ccccc2F)c2ccccc2n1", "values": [{"measurement": "EC50", "setting": "[18]", "value": "2.66 µM (active)"}]}
